Data as given in PubChem BioAssay AID1963869 (Molecular Pharmacology Branch, DTP, NCI, 2024).

Test system: KRAS patient-derived spheroids with HUVEC/MSC, viability
Experiment: Anticancer human tumor 323965-272-R-J2-PDC patient-derived pancreatic carcinoma cell line growth inhibition [KRAS2]
Conditions: for IC50: curve of first compound; for viability, T/C: stronger effect = lower value
Summary of the method: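 Combination screen of spheroid viability in tumor-cell co-cultures with endothelial (HUVEC) and mesenchymal stem cell stroma. Each agent was tested in half-log dilutions, topping at clinical Cmax or at 10 microM without a known Cmax.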

[1] = second compound 0.0316 µM, first compound 0.0316 µM
[2] = second compound 0.0316 µM, first compound 0.1 µM
[3] = second compound 0.0316 µM, first compound 0.316 µM
[4] = second compound 0.0316 µM, first compound 1 µM
[5] = second compound 0.0316 µM, first compound 3.16 µM
[6] = second compound 0.1 µM, first compound 0.0316 µM
[7] = second compound 0.1 µM, first compound 0.1 µM
[8] = second compound 0.1 µM, first compound 0.316 µM
[9] = second compound 0.1 µM, first compound 1 µM
[10] = second compound 0.1 µM, first compound 3.16 µM
[11] = second compound 0.316 µM, first compound 0.0316 µM
[12] = second compound 0.316 µM, first compound 0.1 µM
[13] = second compound 0.316 µM, first compound 0.316 µM
[14] = second compound 0.316 µM, first compound 1 µM
[15] = second compound 0.316 µM, first compound 3.16 µM
[16] = second compound 1 µM, first compound 0.0316 µM
[17] = second compound 1 µM, first compound 0.1 µM
[18] = second compound 1 µM, first compound 0.316 µM
[19] = second compound 1 µM, first compound 1 µM
[20] = second compound 1 µM, first compound 3.16 µM
[21] = second compound 3.16 µM, first compound 0.0316 µM
[22] = second compound 3.16 µM, first compound 0.1 µM
[23] = second compound 3.16 µM, first compound 0.316 µM
[24] = second compound 3.16 µM, first compound 1 µM
[25] = second compound 3.16 µM, first compound 3.16 µM
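Note: spheroids exposed to agents for 7 days.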
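Throughout, for viability, T/C: 100% = DMSO vehicle control viability.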

| SMILES | IC50 (second compound 0.0316 µM) [nM] | IC50 (second compound 0.1 µM) [nM] | IC50 (second compound 0.316 µM) [nM] | IC50 (second compound 1 µM) [nM] | IC50 (second compound 3.16 µM) [nM] | viability, T/C [1] [%] | viability, T/C [2] [%] | viability, T/C [3] [%] | viability, T/C [4] [%] | viability, T/C [5] [%] | viability, T/C [6] [%] | viability, T/C [7] [%] | viability, T/C [8] [%] | viability, T/C [9] [%] | viability, T/C [10] [%] | viability, T/C [11] [%] | viability, T/C [12] [%] | viability, T/C [13] [%] | viability, T/C [14] [%] | viability, T/C [15] [%] | other results |
| --- | --- | --- | --- | --- | --- | --- | --- | --- | --- | --- | --- | --- | --- | --- | --- | --- | --- | --- | --- | --- | --- |
| CC1COCCN1c1cc(-c2ccnn2C)c2ccnc(-c3ccn[nH]3)c2n1 (stereo not given) + C=CC(=O)N1CCN(c2nc(OCC3CCCN3C)nc3c2CCN(c2cccc4cccc(C)c24)C3)CC1CC#N | < 10 | 12 | < 10 | < 10 | < 10 | 26.8 | 18.7 | 16.4 | 13.9 | 12.6 | 27.4 | 15.2 | 14.8 | 12.9 | 12.1 | 21.7 | 14 | 12.2 | 11.2 | 10.6 | viability, T/C (second compound 0.0316 µM, first compound 0.01 µM): 49.2%; viability, T/C (second compound 0.1 µM, first compound 0.01 µM): 54.5%; viability, T/C (second compound 0.316 µM, first compound 0.01 µM): 41.4%; viability, T/C (second compound 1 µM, first compound 0.01 µM): 33%; viability, T/C [16]: 18.2%; viability, T/C [17]: 10.8%; viability, T/C [18]: 11.1%; viability, T/C [19]: 12.2%; viability, T/C [20]: 11.8%; viability, T/C (second compound 3.16 µM, first compound 0.01 µM): 5.59%; viability, T/C [21]: 4.03%; viability, T/C [22]: 3.06%; viability, T/C [23]: 1.93%; viability, T/C [24]: 1.48%; viability, T/C [25]: 2.61% |
| Cn1nccc1Nc1nccc(-c2cc3c(s2)C(C)(C)N(CCN2CCOCC2)C3=O)n1 + C=CC(=O)N1CCN(c2nc(OCC3CCCN3C)nc3c2CCN(c2cccc4cccc(C)c24)C3)CC1CC#N | 387 | < 31.6 | 58.5 | < 31.6 | < 31.6 | 59.9 | 59.8 | 50.2 | 43.2 | 31.5 | 49.1 | 49.1 | 39.2 | 36.4 | 32.1 | 55.5 | 44.9 | 40 | 37.4 | 30.8 | viability, T/C (second compound 0.0316 µM, first compound 10 µM): 32.5%; viability, T/C (second compound 0.1 µM, first compound 10 µM): 36.4%; viability, T/C (second compound 0.316 µM, first compound 10 µM): 35.5%; viability, T/C [16]: 45.5%; viability, T/C [17]: 41.8%; viability, T/C [18]: 45.8%; viability, T/C [19]: 35.7%; viability, T/C [20]: 28.9%; viability, T/C (second compound 1 µM, first compound 10 µM): 29.5%; viability, T/C [21]: 3.69%; viability, T/C [22]: 4.06%; viability, T/C [23]: 2.62%; viability, T/C [24]: 0.91%; viability, T/C [25]: 0.72%; viability, T/C (second compound 3.16 µM, first compound 10 µM): 0.53% |
